Laboratory results taken from patent US10029990B2, “Agent for inducing endogenous interferon” (priority 2010, dated 2018).

Columns and labels:
endogenous interferon [1] = test: Interferon inducing activity in vivo during oral administration to mice; conditions: 5.0 mg/mouse, background 7-10 units
[2] = Concentration in blood plasma of rabbits during vaginal administration (vaginal suppositories 0.1 g); type: in vivo
Procedure: Concentration in blood plasma of the experimental animals during vaginal administration of the inventive substance.
The results of measuring the concentration of the substance in blood plasma of rabbits during vaginal administration in the form of “vaginal suppositories 0.1 g” are shown on the provided diagram in the form of averaged pharmacokinetic curves (see FIG. 1). After inserting the suppository, the substance began to enter the general blood circulation after approximately 15 minutes; after 1 hour the concentration of the substance in the blood reached its maximum (approximately 120 μg/ml); then it was gradually excreted from the organism, and 24 hours after its administration the detected presence of the substance in blood plasma was minimal (approximately 20 μg/ml). The dispersion of individual values was moderate: coefficient of variation CV amounted to 13-22%.

endogenous interferon [3] = test: Interferon inducing activity in vivo during intragastric administration to mice; conditions: 1000 μg/mouse, background 7-10 units

Time at which concentration in the blood reached its maximum [2]: 1 h
Time until the substance began to enter the general blood circulation [2]: approximately 15 minutes
Maximum concentration of the substance in the blood ([2]; after 1 hour): approximately 120 μg/ml
concentration at 24 h ([2]; rabbit, plasma, other: vaginal, 24 hours, read-out: Concentration of the substance in blood plasma 24 hours after administration): ~20000 ng/mL
Structure (SMILES): COC(=O)c1cccc(Nc2cc(=O)[nH]c(=O)[nH]2)c1 [The inventive substance, monomer, 6-(3-methoxycarbonylphenyl) amino-2,4 (1H, 3H)-pyrimidinedione]
Interferon inducing activity, 2 hours (endogenous interferon [1]; 2 hours): 18 IU
Interferon inducing activity, 4 hours (endogenous interferon [1]; 4 hours): 120 IU
Interferon inducing activity, 6 hours (endogenous interferon [1]; 6 hours): 20 IU
Interferon inducing activity, 8 hours (endogenous interferon [1]; 8 hours): 40 IU
Interferon inducing activity, 24 hours (endogenous interferon [1]; 24 hours): 100 IU
Interferon inducing activity, 2 hours (endogenous interferon [3]; 2 hours): 30 IU
Interferon inducing activity, 4 hours (endogenous interferon [3]; 4 hours): 10 IU
Interferon inducing activity, 6 hours (endogenous interferon [3]; 6 hours): 160 IU
Interferon inducing activity, 8 hours (endogenous interferon [3]; 8 hours): 25-30 IU
Interferon inducing activity, 24 hours (endogenous interferon [3]; 24 hours): 30 IU
